{"source": "patent US9334279B2", "about": "“Hepatitis C virus inhibitors” (BRISTOL-MYERS SQUIBB COMPANY, priority 2012, dated 2016)", "key": {"HCV GT1b(Con1) replicon": {"test_system": "HCV GT1b(Con1) replicon", "assay": "HCV replicon luciferase reporter assay, genotype 1b", "format": "cell-based, HCV genotype 1b", "settings": "Hepatitis C virus, 72 h, HUH-7 cells, Renilla luciferase, 3 days incubation", "excerpt": "An HCV GT1b(Con1) replicon cell system was established as described by Lohmann V, Korner F, Koch J, Herian U, Theilmann L, Bartenschlager R., Science 285(5424):110-3 (1999) and modified to introduce a luciferase reporter (Krieger N, Lohmann V, and Bartenschlager R, J. Virol. 75(10):4614-4624 (2001)). cDNA encoding a humanized form of the Renilla luciferase gene, and a linker sequence fused directly to the 3′-end of the luciferase gene were introduced into the replicon construct using an Asc1 restriction site located in core, directly upstream of the neomycin marker gene. The adaptive mutation at position 1179 (serine to isoleucine) was also introduced (Blight K J, Kolykhalov, A A, Rice, C M, Science 290(5498):1972-1974). A stable cell line constitutively expressing this HCV replicon construct was generated by first linearizing plasmid DNAs with ScaI. RNA transcripts were synthesized in vitro using the T7 MegaScript transcription kit (Ambion, Austin, Tex.) according to manufacturer's directions. In vitro transcripts of the cDNA were transfected into the human hepatoma cell line, HUH-7. […] Resulting cell lines were characterized for positive and negative strand RNA production and protein production over time.\n(§1) HCV replicon luciferase assays were developed to monitor the inhibitory effects of compounds described in the disclosure on HCV genotypes 1a and 1b viral replication. HUH-7 cells, constitutively expressing the HCV replicon, were grown in Dulbecco's Modified Eagle Media (DMEM) (Gibco-BRL) containing 10% Fetal calf serum (FCS) (Sigma) and 1 mg/mL G418 (Gibco-BRL). Compounds were serially diluted 3 folds in DMSO for a twenty-point titration and subsequently transferred to sterile 384-well tissue-culture treated plates (Corning cat #3571). The plates were then seeded with 50 μL of cells at a density of 3.0×10^3 cells/well in DMEM containing 4% FCS (final DMSO concentration at 0.5%). After 3 days incubation at 37° C., cells were analyzed for Renilla Luciferase activity using the EnduRen as substrate (Promega cat #E6485). The EnduRen substrate was diluted in DMEM and then added to the plates to a final concentration of 7.5 μM. The plates were incubated for 2 hrs at 37° C. and then read immediately for 30 seconds with Viewlux Imager (PerkinElmer) using a luminescence program. To assess cytotoxicity of compounds, CC50 values were generated by multiplexing the EnduRen-containing plates with Cell Titer-Blue (Promega, cat #G8082). Cell-Titer Blue (3 μL) was added to each well and incubated for 8 hrs at 37° C. The fluorescence signal from each well was read, with an excitation wavelength at 525/10 nm and an emission wavelength of 598/10 nm, using the Viewlux Imager.\n(§2) The EC50 values for compounds were calculated by using a four-parameter logistic equation: y=A+[…])/(1+((C/x)^D))), where A and B denotes minimal and maximal % inhibition, respectively, C is the EC50, D is the hill slope and x represents compound concentration."}, "HCV GT1a(H77) replicon": {"test_system": "HCV GT1a(H77) replicon", "assay": "HCV replicon luciferase reporter assay, genotype 1a", "format": "cell-based, HCV genotype 1a", "settings": "Hepatitis C virus, 72 h, HUH-7 cells, Renilla luciferase, 3 days incubation", "excerpt": "A stable HCV GT1a(H77) replicon luciferase reporter cell line (Yanagi M, Purcell RH, Emerson S U, et al. Transcripts from a single full-length cDNA clone of hepatitis C virus are infectious when directly transfected into the liver of a chimpanzee. Proc Natl Acad Sci USA 1997; 94(16):8738-8743) was generated as described previously for the genotype 1b(Con1) replicon luciferase cell line. The replicon construct was modified by introducing mutations into the genes encoding the NS3 helicase domain (proline replaced by leucine at position 1496) and NS5A (serine to isoleucine at position 2204) to improve replication in cell culture.\nas §1, §2"}}, "note": "Like-named read-outs stand apart in the source and are kept apart here.", "data": [{"smiles": "Cc1csc(-c2cc(O[C@@H]3C[C@H]4C(=O)N[C@]5(C(=O)NS(=O)(=O)C6(C)CC6)C[C@H]5/C=C\\CC[C@@H](C)C[C@@H](C)[C@H](NC(=O)OC(C)(C)C(F)(F)F)C(=O)N4C3)ccn2)n1", "note": "[Compound 1045, 1,1,1-trifluoro-2-methylpropan-2-yl ((2R,6S,7R,9R,13aS,14aR,16aS,Z)-7,9-dimethyl-14a-(((1-methylcyclopropyl)sulfonyl)carbamoyl)-2-((2-(4-methylthiazol-2-yl)pyridin-4-yl)oxy)-5,16-dioxo-1,2,3,5,6,7,8,9,10,11,13a,14,14a,15,16,16a-hexadecahydrocyclopropa[e]pyrrolo[1,2-a][1,4]diazacyclopentadecin-6-yl)carbamate]", "values": [{"measurement": "EC50", "setting": "HCV GT1b(Con1) replicon; read-out: LE_1b (EC50, range)", "result": "0.1 to 0.5", "unit": "nM"}, {"measurement": "EC50", "setting": "HCV GT1a(H77) replicon; read-out: LE_1a (EC50, range)", "result": "1.01 to 5", "unit": "nM"}]}, {"smiles": "CC[C@@H]1C[C@H](C)CC/C=C\\[C@@H]2C[C@@]2(C(=O)NS(=O)(=O)C2CC2)NC(=O)[C@@H]2C[C@@H](Oc3ccc(-c4nccs4)cn3)CN2C(=O)[C@H]1NC(=O)OC(C)(C)C(F)(F)F", "note": "[Compound 1063, 1,1,1-trifluoro-2-methylpropan-2-yl ((2R,6S,7R,9R,13aS,14aR,16aS,Z)-14a-((cyclopropylsulfonyl)carbamoyl)-7-ethyl-9-methyl-5,16-dioxo-2-((5-(thiazol-2-yl)pyridin-2-yl)oxy)-1,2,3,5,6,7,8,9,10,11,13a,14,14a,15,16,16a-hexadecahydrocyclopropa[e]pyrrolo[1,2-a][1,4]diazacyclopentadecin-6-yl)carbamate]", "values": [{"measurement": "EC50", "setting": "HCV GT1b(Con1) replicon; read-out: LE_1b (EC50)", "result": 3.51, "unit": "nM"}, {"measurement": "EC50", "setting": "HCV GT1b(Con1) replicon; read-out: LE_1b (EC50, range)", "result": "1.01 to 5", "unit": "nM"}, {"measurement": "EC50", "setting": "HCV GT1a(H77) replicon; read-out: LE_1a (EC50)", "result": 16.7, "unit": "nM"}, {"measurement": "EC50", "setting": "HCV GT1a(H77) replicon; read-out: LE_1a (EC50, range)", "result": "5.01 to 35", "unit": "nM"}]}, {"smiles": "CC(C)Oc1ccc(-c2cc(O[C@@H]3C[C@H]4C(=O)N[C@]5(C(=O)NS(=O)(=O)C6(C)CC6)C[C@H]5/C=C\\CC[C@H](C)C[C@@H](C)[C@H](NC(=O)OC(C)(C)C(F)(F)F)C(=O)N4C3)cc(-c3nccs3)n2)cc1", "note": "[Compound 1008, 1,1,1-trifluoro-2-methylpropan-2-yl ((2R,6S,7R,9S,13aS,14aR,16aS,Z)-2-((2-(4-isopropoxyphenyl)-6-(thiazol-2-yl)pyridin-4-yl)oxy)-7,9-dimethyl-14a-(((1-methylcyclopropyl)sulfonyl)carbamoyl)-5,16-dioxo-1,2,3,5,6,7,8,9,10,11,13a,14,14a,15,16,16a-hexadecahydrocyclopropa[e]pyrrolo[1,2-a][1,4]diazacyclopentadecin-6-yl)carbamate]", "values": [{"measurement": "EC50", "setting": "HCV GT1b(Con1) replicon; read-out: LE_1b (EC50, range)", "result": "1.01 to 5", "unit": "nM"}, {"measurement": "EC50", "setting": "HCV GT1a(H77) replicon; read-out: LE_1a (EC50, range)", "result": "5.01 to 35", "unit": "nM"}]}, {"smiles": "CC(C)Oc1ccc(-c2cc(O[C@@H]3C[C@H]4C(=O)N[C@]5(C(=O)NS(=O)(=O)C6(C)CC6)C[C@H]5/C=C\\CC[C@@H](C)C[C@@H](C)[C@H](NC(=O)OC5(C(F)(F)F)CCCOC5)C(=O)N4C3)cc(-c3nccs3)n2)cn1", "note": "(stereo partly drawn) [Compound 1047, 3-(trifluoromethyl)tetrahydro-2H-pyran-3-yl ((2R,6S,7R,9R,13aS,14aR,16aS,Z)-2-((6′-isopropoxy-6-(thiazol-2-yl)-[2,3′-bipyridin]-4-yl)oxy)-7,9-dimethyl-14a-(((1-methylcyclopropyl)sulfonyl)carbamoyl)-5,16-dioxo-1,2,3,5,6,7,8,9,10,11,13a,14,14a,15,16,16a-hexadecahydrocyclopropa[e]pyrrolo[1,2-a][1,4]diazacyclopentadecin-6-yl)carbamate]", "values": [{"measurement": "EC50", "setting": "HCV GT1b(Con1) replicon; read-out: LE_1b (EC50, range)", "result": "0.51 to 1", "unit": "nM"}, {"measurement": "EC50", "setting": "HCV GT1a(H77) replicon; read-out: LE_1a (EC50, range)", "result": "1.01 to 5", "unit": "nM"}]}, {"smiles": "C[C@@H]1CC/C=C\\[C@@H]2C[C@@]2(C(=O)NS(=O)(=O)C2(C)CC2)NC(=O)[C@@H]2C[C@@H](Oc3nccc(Cl)c3C(F)(F)F)CN2C(=O)[C@@H](NC(=O)OC(C)(C)C(F)(F)F)[C@H](C)C1", "note": "[Compound 1067, 1,1,1-trifluoro-2-methylpropan-2-yl ((2R,6S,7R,9R,13aS,14aR,16aS,Z)-2-((4-chloro-3-(trifluoromethyl)pyridin-2-yl)oxy)-7,9-dimethyl-14a-(((1-methylcyclopropyl)sulfonyl)carbamoyl)-5,16-dioxo-1,2,3,5,6,7,8,9,10,11,13a,14,14a,15,16,16a-hexadecahydrocyclopropa[e]pyrrolo[1,2-a][1,4]diazacyclopentadecin-6-yl)carbamate]", "values": [{"measurement": "EC50", "setting": "HCV GT1b(Con1) replicon; read-out: LE_1b (EC50, range)", "result": "0.1 to 0.5", "unit": "nM"}]}, {"smiles": "C[C@@H]1CC/C=C\\[C@@H]2C[C@@]2(C(=O)NS(=O)(=O)C2(C)CC2)NC(=O)[C@@H]2C[C@@H](Oc3ncccc3C(F)(F)F)CN2C(=O)[C@@H](NC(=O)OC(C)(C)C)[C@H](C)C1", "note": "[Compound 1065, tert-butyl ((2R,6S,7R,9R,13aS,14aR,16aS,Z)-7,9-dimethyl-14a-(((1-methylcyclopropyl)sulfonyl)carbamoyl)-5,16-dioxo-2-((3-(trifluoromethyl)pyridin-2-yl)oxy)-1,2,3,5,6,7,8,9,10,11,13a,14,14a,15,16,16a-hexadecahydrocyclopropa[e]pyrrolo[1,2-a][1,4]diazacyclopentadecin-6-yl)carbamate]", "values": [{"measurement": "EC50", "setting": "HCV GT1b(Con1) replicon; read-out: LE_1b (EC50, range)", "result": "1.01 to 5", "unit": "nM"}]}, {"smiles": "COc1cccc(O[C@@H]2C[C@H]3C(=O)N[C@]4(C(=O)NS(=O)(=O)C5(C)CC5)C[C@H]4/C=C\\CC[C@@H](C)C[C@@H](C)[C@H](NC(=O)OC(C)(C)C(F)(F)F)C(=O)N3C2)n1", "note": "[Compound 1068, 1,1,1-trifluoro-2-methylpropan-2-yl ((2R,6S,7R,9R,13aS,14aR,16aS,Z)-2-((6-methoxypyridin-2-yl)oxy)-7,9-dimethyl-14a-(((1-methylcyclopropyl)sulfonyl)carbamoyl)-5,16-dioxo-1,2,3,5,6,7,8,9,10,11,13a,14,14a,15,16,16a-hexadecahydrocyclopropa[e]pyrrolo[1,2-a][1,4]diazacyclopentadecin-6-yl)carbamate]", "values": [{"measurement": "EC50", "setting": "HCV GT1b(Con1) replicon; read-out: LE_1b (EC50, range)", "result": "1.01 to 5", "unit": "nM"}]}, {"smiles": "C[C@@H]1CC/C=C\\[C@@H]2C[C@@]2(C(=O)NS(=O)(=O)C2(C)CC2)NC(=O)[C@@H]2C[C@@H](Oc3ncccc3C(F)(F)F)CN2C(=O)[C@@H](NC(=O)OC(C)(C)C(F)(F)F)[C@H](C)C1", "note": "[Compound 1066, 1,1,1-trifluoro-2-methylpropan-2-yl ((2R,6S,7R,9R,13aS,14aR,16aS,Z)-7,9-dimethyl-14a-(((1-methylcyclopropyl)sulfonyl)carbamoyl)-5,16-dioxo-2-((3-(trifluoromethyl)pyridin-2-yl)oxy)-1,2,3,5,6,7,8,9,10,11,13a,14,14a,15,16,16a-hexadecahydrocyclopropa[e]pyrrolo[1,2-a][1,4]diazacyclopentadecin-6-yl)carbamate]", "values": [{"measurement": "EC50", "setting": "HCV GT1b(Con1) replicon; read-out: LE_1b (EC50, range)", "result": "0.51 to 1", "unit": "nM"}]}, {"smiles": "C[C@@H]1CC/C=C\\[C@@H]2C[C@@]2(C(=O)NS(=O)(=O)C2(C)CC2)NC(=O)[C@@H]2C[C@@H](Oc3ncccc3Cl)CN2C(=O)[C@@H](NC(=O)OC(C)(C)C(F)(F)F)[C@H](C)C1", "note": "[Compound 1069, 1,1,1-trifluoro-2-methylpropan-2-yl ((2R,6S,7R,9R,13aS,14aR,16aS,Z)-2-((3-chloropyridin-2-yl)oxy)-7,9-dimethyl-14a-(((1-methylcyclopropyl)sulfonyl)carbamoyl)-5,16-dioxo-1,2,3,5,6,7,8,9,10,11,13a,14,14a,15,16,16a-hexadecahydrocyclopropa[e]pyrrolo[1,2-a][1,4]diazacyclopentadecin-6-yl)carbamate]", "values": [{"measurement": "EC50", "setting": "HCV GT1b(Con1) replicon; read-out: LE_1b (EC50, range)", "result": "0.1 to 0.5", "unit": "nM"}]}]}
